Measured values as given in patent publication US9422293B2 (priority 2006, dated 2016).
Structures can show the parent of a compound that is named as a salt.

Each compound was assayed against rat TRPV1 (Rattus norvegicus (Rat), UniProt O35433). Settings: read-out: Rat IC50.
Chain of rat TRPV1 (O35433 whole entry): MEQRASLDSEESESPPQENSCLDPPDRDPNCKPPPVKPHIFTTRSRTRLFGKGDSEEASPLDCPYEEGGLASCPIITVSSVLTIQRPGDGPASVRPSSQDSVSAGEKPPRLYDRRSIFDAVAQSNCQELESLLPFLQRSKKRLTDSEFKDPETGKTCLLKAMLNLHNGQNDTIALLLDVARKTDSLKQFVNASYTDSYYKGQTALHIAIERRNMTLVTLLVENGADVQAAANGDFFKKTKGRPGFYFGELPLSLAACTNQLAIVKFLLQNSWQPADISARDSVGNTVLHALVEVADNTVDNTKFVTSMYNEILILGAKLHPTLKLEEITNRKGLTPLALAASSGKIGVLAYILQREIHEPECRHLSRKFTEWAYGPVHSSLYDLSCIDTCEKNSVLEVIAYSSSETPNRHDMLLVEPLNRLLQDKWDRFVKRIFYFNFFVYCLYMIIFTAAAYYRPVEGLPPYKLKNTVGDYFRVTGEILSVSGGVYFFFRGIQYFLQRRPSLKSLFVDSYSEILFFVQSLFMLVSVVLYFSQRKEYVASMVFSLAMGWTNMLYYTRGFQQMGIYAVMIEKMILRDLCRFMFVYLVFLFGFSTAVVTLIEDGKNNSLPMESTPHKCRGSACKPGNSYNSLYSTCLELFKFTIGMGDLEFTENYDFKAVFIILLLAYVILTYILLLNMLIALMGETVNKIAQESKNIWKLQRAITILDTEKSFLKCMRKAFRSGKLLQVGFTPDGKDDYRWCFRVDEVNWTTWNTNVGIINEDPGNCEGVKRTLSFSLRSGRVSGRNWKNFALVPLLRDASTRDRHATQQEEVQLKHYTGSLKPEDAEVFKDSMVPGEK

Row | SMILES | IC50 [nM]
1 | O[C@@H]1CCCN(c2nc3c(c(Nc4ccc(C(F)(F)F)cc4)n2)CCN(c2ncccc2C(F)(F)F)CC3)C1 [Example 91B, (R)-1-[4-(4-Trifluoromethyl-phenylamino)-7-(3-trifluoromethyl-pyridin-2-yl)-6,7,8,9-tetrahydro-5H-pyrimido[4,5-d]azepin-2-yl]-piperidin-3-ol trifluoroacetic acid salt] | 240
2 | CC(C)c1nc2c(c(NCCc3ccccc3F)n1)CCN(c1ncccc1C(F)(F)F)CC2 [Example 118, N-[2-(2-Fluorophenyl)ethyl]-2-(1-methylethyl)-7-[3-(trifluoromethyl)pyridin-2-yl]-6,7,8,9-tetrahydro-5H-pyrimido[4,5-d]azepin-4-amine] | 500
3 | FC(F)(F)c1ccc(Nc2nc(N3CCCCCC3)nc3c2CCN(c2ncccc2C(F)(F)F)CC3)cc1Cl [Example 224, 2-Azepan-1-yl-N-[3-chloro-4-(trifluoromethyl)phenyl]-7-[3-(trifluoromethyl)pyridin-2-yl]-6,7,8,9-tetrahydro-5H-pyrimido[4,5-d]azepin-4-amine] | 20
4 | CN1CCN(c2nc3c(c(Nc4ccc(C(F)(F)F)nc4)n2)CCN(c2ncccc2C(F)(F)F)CC3)CC1 [Example 220, 2-(4-Methylpiperazin-1-yl)-7-[3-(trifluoromethyl)pyridin-2-yl]-N-[6-(trifluoromethyl)pyridin-3-yl]-6,7,8,9-tetrahydro-5H-pyrimido[4,5-d]azepin-4-amine] | 1520
5 | CC(C)c1nc2c(c(Nc3ccc(C(C)(C)C#N)cc3)n1)CCN(c1ncccc1C(F)(F)F)CC2 [Example 129, 2-Methyl-2-[4-({2-(1-methylethyl)-7-[3-(trifluoromethyl)pyridin-2-yl]-6,7,8,9-tetrahydro-5H-pyrimido[4,5-d]azepin-4-yl}amino)phenyl]propanenitrile] | 230
6 | CC(C)(C)c1ccc(Nc2ncnc3c2CCN(c2ncccc2C(F)(F)F)CC3)cc1 [Example 1, (4-tert-Butyl-phenyl)-[7-(3-trifluoromethyl-pyridin-2-yl)-6,7,8,9-tetrahydro-5H-pyrimido[4,5-d]azepin-4-yl]-amine] | 90
7 | FC(F)(F)c1ccc(Nc2nc(N3CCCCC3)nc3c2CCN(c2ncccc2C(F)(F)F)CC3)cn1 [Example 234, 2-Piperidin-1-yl-7-[3-(trifluoromethyl)pyridin-2-yl]-N-[6-(trifluoromethyl)pyridin-3-yl]-6,7,8,9-tetrahydro-5H-pyrimido[4,5-d]azepin-4-amine trifluoroacetic acid salt] | 80
8 | CC(C)c1nc2c(c(Nc3cccc(C(F)(F)F)c3)n1)CCN(c1ncccc1C(F)(F)F)CC2 [Example 10, [2-Isopropyl-7-(3-trifluoromethyl-pyridin-2-yl)-6,7,8,9-tetrahydro-5H-pyrimido[4,5-d]azepin-4-yl]-(3-trifluoromethyl-phenyl)-amine] | 930
9 | CN(C)c1nc2c(c(Nc3ccc(C(F)(F)F)cn3)n1)CCN(c1ncccc1C(F)(F)F)CC2 [Example 44, N^2,N^2-Dimethyl-N^4-(5-trifluoromethyl-pyridin-2-yl)-7-(3-trifluoro-methyl-pyridin-2-yl)-6,7,8,9-tetrahydro-5H-pyrimido[4,5-d]azepine-2,4-diamine] | 250
10 | CC(C)(C)c1ccc(Nc2nc(N3CCC3)nc3c2CCN(c2ncccc2C(F)(F)F)CC3)cc1 [Example 249, 2-Azetidin-1-yl-N-[4-(1,1-dimethylethyl)phenyl]-7-[3-(trifluoromethyl)pyridin-2-yl]-6,7,8,9-tetrahydro-5H-pyrimido[4,5-d]azepin-4-amine] | 830
11 | O=S(=O)(NC1CC1)c1cccnc1N1CCc2nc(N3CCCCC3)nc(Nc3ccc(C(F)(F)F)cc3)c2CC1 [Example 299, N-Cyclopropyl-2-(2-piperidin-1-yl-4-{[4-(trifluoromethyl)phenyl]amino}-5,6,8,9-tetrahydro-7H-pyrimido[4,5-d]azepin-7-yl)pyridine-3-sulfonamide] | 3000
12 | CC(C)c1nc2c(c(Nc3ccc(C(F)(F)F)cc3)n1)CCN(c1nc3ccccc3nc1C(F)(F)F)CC2 [Example 35, [2-Isopropyl-7-(3-trifluoromethyl-quinoxalin-2-yl)-6,7,8,9-tetrahydro-5H-pyrimido[4,5-d]azepin-4-yl]-(4-trifluoromethyl-phenyl)-amine] | 2400
13 | FC(F)(F)c1cccnc1N1CCc2nc(N3CCCCC3)nc(NCc3ccc(Cl)c(Cl)c3)c2CC1 [Example 251, N-[(3,4-Dichlorophenyl)methyl]-2-piperidin-1-yl-7-[3-(trifluoromethyl)pyridin-2-yl]-6,7,8,9-tetrahydro-5H-pyrimido[4,5-d]azepin-4-amine] | 1980
14 | FC(F)(F)c1ccc(Nc2nc(Nc3ccccc3)nc3c2CCN(c2ncccc2C(F)(F)F)CC3)cc1 [Example 54, N^2-Phenyl-N^4-(4-trifluoromethyl-phenyl)-7-(3-trifluoromethyl-pyridin-2-yl)-6,7,8,9-tetrahydro-5H-pyrimido[4,5-d]azepine-2,4-diamine] | 230
15 | FC(F)(F)c1ccc(Nc2nc(N3CCCOCC3)nc3c2CCN(c2ncccc2C(F)(F)F)CC3)cc1Cl [Example 245, N-[3-Chloro-4-(trifluoromethyl)phenyl]-2-(1,4-oxazepan-4-yl)-7-[3-(trifluoromethyl)pyridin-2-yl]-6,7,8,9-tetrahydro-5H-pyrimido[4,5-d]azepin-4-amine trifluoroacetic acid salt] | 20
16 | Cc1cccc(Nc2nc3c(c(Nc4ccc(C(F)(F)F)cc4)n2)CCN(c2ncccc2C(F)(F)F)CC3)c1 [Example 279, N^2-(3-Methylphenyl)-N^4-[4-(trifluoromethyl)phenyl]-7-[3-(trifluoromethyl)pyridin-2-yl]-6,7,8,9-tetrahydro-5H-pyrimido[4,5-d]azepine-2,4-diamine trifluoroacetic acid salt] | > 6670
17 | CCS(=O)(=O)c1cccnc1N1CCc2nc(SC)nc(Nc3ccc(C(F)(F)F)cc3)c2CC1 [Example 305, [7-(3-Ethanesulfonyl-pyridin-2-yl)-2-methylsulfanyl-6,7,8,9-tetrahydro-5H-pyrimido[4,5-d]azepin-4-yl]-(4-trifluoromethyl-phenyl)-amine] | 1120
18 | Cc1nc2ccccc2nc1N1CCc2nc(C(C)C)nc(Nc3ccc(C(F)(F)F)cc3)c2CC1 [Example 34, [2-Isopropyl-7-(3-methyl-quinoxalin-2-yl)-6,7,8,9-tetrahydro-5H-pyrimido-[4,5-d]azepin-4-yl]-(4-trifluoromethyl-phenyl)-amine] | 360
19 | CN1CCN(c2nc3c(c(Nc4ccc(C(F)(F)F)c(Cl)c4)n2)CCN(c2ncccc2C(F)(F)F)CC3)CC1 [Example 221, N-[3-Chloro-4-(trifluoromethyl)phenyl]-2-(4-methylpiperazin-1-yl)-7-[3-(trifluoromethyl)pyridin-2-yl]-6,7,8,9-tetrahydro-5H-pyrimido[4,5-d]azepin-4-amine] | 720
20 | COCc1nc2c(c(Nc3ccc(C(F)(F)F)nc3)n1)CCN(c1ncccc1C(F)(F)F)CC2 [Example 346, 2-[(Methyloxy)methyl]-7-[3-(trifluoromethyl)pyridin-2-yl]-N-[6-(trifluoromethyl)pyridin-3-yl]-6,7,8,9-tetrahydro-5H-pyrimido[4,5-d]azepin-4-amine trifluoroacetic acid salt] | > 6670
